Values quoted from earlier work as cited in patent publication US5516503A, “Diagnostic composition comprising a binuclear complex, its method of preparation and its use in magnetic resonance imaging” (Guerbet S.A., priority 1989, dated 1996).

Tests used:
[1] = information of Berlex Lab.
[2] = test system: male mice; conditions: document FR-A-2 596 992

**Q.** What does the source list for `CNC[C@H](O)[C@@H](O)[C@H](O)[C@H](O)CO.CNC[C@H](O)[C@@H](O)[C@H](O)[C@H](O)CO.O=C([O-])CN(CCN(CC(=O)[O-])CC(=O)O)CCN(CC(=O)[O-])CC(=O)O.[Gd+3]` [Magnevist, salt of di-N-methylglucamine (dimeglumine) of the complex Gd(III)-diethylenetriaminepentaacetic acid (DTPA)]?
**A.** osmotic pressure [1]: 1940 mosm/kg; LD50 [2]: 4.45 mmol/kg
